Test results: patent publication US20240018161A1, “MODULATORS OF CYSTIC FIBROSIS TRANSMEMBRANE CONDUCTANCE REGULATOR” (VERTEX PHARMACEUTICALS INCORPORATED, priority 2020, published 2024)
Like-named read-outs stand apart in the source and are kept apart here.

Molecular target: CFTR-mediated chloride transport in human intestinal epithelial enteroid cells (Homo sapiens, UniProt P13569)
Assay: Membrane potential dye, Enteroid Assay A
Type: cell-based
Settings: for EC50: read-out: Ent. A EC50
In short: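 Membrane potential dye (20 μM methyl oxonol, with 30 μM CaCCinh-A01 and 30 μM Chicago Sky Blue) loaded 25 min at room temperature into ROCK-inhibitor-seeded human enteroid cells. Chloride-free stimulation buffer triggered transport, followed by 15 min fluorescence. % Activity relative to 3 μM/3 μM/300 nM triple-combination control.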

[1] = enteroid cells incubated with test compound 18-24 hours, acute 10 μM forskolin and 300 nM N-[2,4-bis(1,1-dimethylethyl)-5-hydroxyphenyl]-1,4-dihydro-4-oxoquinoline-3-carboxamide
[2] = percentage of chloride transport of triple combination control (3 μM N-[(6-amino-2-pyridyl)sulfonyl]-6-(3-fluoro-5-isobutoxy-phenyl)-2-[(4S)-2,2,4-trimethylpyrrolidin-1-yl]pyridine-3-carboxamide based)

Sequence of CFTR-mediated chloride transport in human intestinal epithelial enteroid cells (P13569 with tags, fused parts or gaps DEL508-508): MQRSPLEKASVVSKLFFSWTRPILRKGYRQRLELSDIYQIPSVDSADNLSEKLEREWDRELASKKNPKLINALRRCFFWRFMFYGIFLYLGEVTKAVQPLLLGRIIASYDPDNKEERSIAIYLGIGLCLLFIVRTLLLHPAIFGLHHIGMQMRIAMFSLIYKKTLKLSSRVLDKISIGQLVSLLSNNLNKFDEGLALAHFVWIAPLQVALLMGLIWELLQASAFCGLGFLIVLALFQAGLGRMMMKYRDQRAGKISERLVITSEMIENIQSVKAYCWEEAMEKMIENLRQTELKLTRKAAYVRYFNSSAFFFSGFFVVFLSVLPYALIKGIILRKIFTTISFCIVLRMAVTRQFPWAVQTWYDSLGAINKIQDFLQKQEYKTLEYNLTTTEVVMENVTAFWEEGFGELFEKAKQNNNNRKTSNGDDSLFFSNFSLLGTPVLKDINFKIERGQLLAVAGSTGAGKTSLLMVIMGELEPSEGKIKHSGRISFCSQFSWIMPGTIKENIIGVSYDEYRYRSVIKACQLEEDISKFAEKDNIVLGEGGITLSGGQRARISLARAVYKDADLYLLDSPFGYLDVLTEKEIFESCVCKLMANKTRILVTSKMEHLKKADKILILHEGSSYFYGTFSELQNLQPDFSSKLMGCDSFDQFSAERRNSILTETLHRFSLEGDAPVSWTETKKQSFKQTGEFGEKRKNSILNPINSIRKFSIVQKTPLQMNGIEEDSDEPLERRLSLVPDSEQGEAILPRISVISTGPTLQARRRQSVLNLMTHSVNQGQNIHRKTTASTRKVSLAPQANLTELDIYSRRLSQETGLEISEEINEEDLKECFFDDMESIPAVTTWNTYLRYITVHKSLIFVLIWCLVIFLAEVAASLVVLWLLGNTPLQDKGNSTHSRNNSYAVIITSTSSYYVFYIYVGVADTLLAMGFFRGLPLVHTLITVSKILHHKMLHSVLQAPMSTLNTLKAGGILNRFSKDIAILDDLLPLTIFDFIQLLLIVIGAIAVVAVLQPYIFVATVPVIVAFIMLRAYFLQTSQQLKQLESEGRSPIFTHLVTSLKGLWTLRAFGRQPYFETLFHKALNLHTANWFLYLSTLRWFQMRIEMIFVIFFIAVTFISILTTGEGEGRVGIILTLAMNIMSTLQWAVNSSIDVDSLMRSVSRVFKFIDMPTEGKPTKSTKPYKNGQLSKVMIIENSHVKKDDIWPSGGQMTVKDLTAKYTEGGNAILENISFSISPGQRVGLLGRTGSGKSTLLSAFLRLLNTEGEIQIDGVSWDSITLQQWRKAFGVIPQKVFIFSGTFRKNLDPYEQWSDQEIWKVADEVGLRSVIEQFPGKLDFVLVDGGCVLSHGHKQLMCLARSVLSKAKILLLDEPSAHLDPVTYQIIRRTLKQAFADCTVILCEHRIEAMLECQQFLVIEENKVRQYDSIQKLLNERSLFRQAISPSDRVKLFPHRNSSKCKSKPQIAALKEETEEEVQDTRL

SMILES	EC50 [1] [µM]	Ent. A Max Activity (%) [2]	Ent. A Max Activity (%) (Enteroid Assay A)	EC50 (Enteroid Assay A) [µM]
Cc1cccc(C)c1-c1cc2nc(n1)NS(=O)(=O)c1cccc(c1)C(=O)N1CCN(C(=O)C3CCCCC3)C[C@@H]1CO2 [Compound 168, (8R)-6-Cyclohexanecarbonyl-13-(2,6-dimethylphenyl)-10-oxa-17λ^6-thia-3,6,14,16,23-pentaazatetracyclo[16.3.1.111,15.03,8]tricosa-1(21),11,13,15(23),18(22),19-hexaene-2,17,17-trione]	< 1	+++ (+++ is >60%)	–	–
Cc1cccc(C)c1-c1cc2nc(n1)NS(=O)(=O)c1cccc(c1)CN1Cc3ccccc3C(C1)O2 (centres unmarked) [Compound 208, 12-(2,6-Dimethylphenyl)-15-oxa-8λ^6-thia-1,9,11,25-tetraazapentacyclo[14.7.1.13,7.110,14.017,22]hexacosa-3(26),4,6,10,12,14(25),17(22),18,20-nonaene-8,8-dione]	< 1	++ (++ is 30-60%)	–	–
Cc1cccc(C)c1-c1cc2nc(n1)NS(=O)(=O)c1cccc(c1)C(=O)N1CCN(C3CCC3(C)C)C[C@H](C1)O2 (single isomer, unassigned) [Compound 10]	–	–	+++ (+++ is >600%)	< 1
Cc1cccc(C)c1-c1cc2nc(n1)NS(=O)(=O)c1cc(n(C)n1)C(=O)N1Cc3ccccc3[C@H](C1)O2 [Compound 340]	3 to 30	+ (+ is <300%)	–	–
Cc1cccc(C)c1-c1cc2nc(n1)NS(=O)(=O)c1cccc(c1)C(=O)N1CCN(Cc3ccnnc3)C[C@@H]1CO2 [Compound 287]	–	+ (+ is <300%)	–	–
Cc1cccc(C)c1-c1cc2nc(n1)NS(=O)(=O)c1cccc(c1)C(=O)N1CCN(C(C)C)C[C@@H]1CO2 [Compound 165, (8R)-13-(2,6-Dimethylphenyl)-6-(propan-2-yl)-10-oxa-17λ^6-thia-3,6,14,16,23-pentaazatetracyclo[16.3.1.111,15.03,8]tricosa-1(21),11,13,15(23),18(22),19-hexaene-2,17,17-trione]	3 to 30	+++ (+++ is >60%)	–	–
Cc1cccc(C)c1-c1cc2nc(n1)NS(=O)(=O)c1cccc(c1)C(=O)N1CC(CC(C(=O)NCCC(C)(C)C)C1)O2 (centres unmarked) [Compound 321]	< 1	++ (++ is 30-60%)	–	–
Cc1cccc(C)c1-c1cc2nc(n1)NS(=O)(=O)c1cccc(c1)C(=O)N1C[C@@H](CN(C(C)C)C[C@H]1CC(C)C)O2 [Compound 139]	–	–	+++ (+++ is >600%)	< 1
Cc1cccc(C)c1-c1cc2nc(n1)NS(=O)(=O)c1cccc(c1)C(=O)N1CCN(C3CCC(C)(C)C3)C[C@H](C1)O2 (single isomer, unassigned) [Compound 36]	–	–	+++ (+++ is >600%)	< 1
Cc1cccc(C)c1-c1cc2nc(n1)NS(=O)(=O)c1cccc(c1)C(=O)N1Cc3ccccc3C[C@H](C1)O2 (single isomer, unassigned) [Compound 216, 12-(2,6-dimethylphenyl)-15-oxa-8λ^6-thia-1,9,11,26-tetraazapentacyclo[14.8.1.13,7.110,14.018,23]heptacosa-3(27),4,6,10,12,14(26),18,20,22-nonaene-2,8,8-trione]	1 to 3	+++ (+++ is >60%)	–	–
Cc1cccc(C)c1-c1cc2nc(n1)NS(=O)(=O)c1cccc(c1)C(=O)N1CCN(CCC3(C(F)(F)F)CC3)C(CO2)C1 (centres unmarked) [Compound 314]	< 1	+++ (+++ is >60%)	–	–
Cc1cccc(C)c1-c1cc2nc(n1)NS(=O)(=O)c1cccc(c1)C(=O)N1C[C@H]3C[C@@H]1[C@@H](C3)O2 [Compound 364]	–	++ (++ is 30-60%)	–	–
Cc1cccc(C)c1-c1cc2nc(n1)NS(=O)(=O)c1cccc(c1)C(=O)N1C[C@@H](CN(CCC(C)(C)C)C[C@H]1CC(C)C)O2 [Compound 143]	–	–	+++ (+++ is >600%)	< 1
Cc1cccc(C)c1-c1cc2nc(n1)NS(=O)(=O)c1cccc(c1)C(=O)N1CCN(C3C(C)(C)CC3(C)C)C[C@H](C1)O2 [Compound 20]	–	–	+++ (+++ is >600%)	< 1
Cc1cccc(C)c1-c1cc2nc(n1)NS(=O)(=O)c1cccc(c1)C(=O)N1CCCCC(C1)O2 (centres unmarked) [Compound 369]	–	+ (+ is <300%)	–	–
Cc1cccc(C)c1-c1cc2nc(n1)NS(=O)(=O)c1cccc(c1)C(=O)N1CCN(C(=O)CC(C)(C)C)CC1CO2 (centres unmarked) [Compound 307]	3 to 30	++ (++ is 30-60%)	–	–
Cc1cccc(C)c1-c1cc2nc(n1)NS(=O)(=O)c1cccc(c1)C(=O)N1C[C@@H](CNC[C@H]1C(C)C)O2 [Compound 123, (16R,20R)-12-(2,6-Dimethylphenyl)-20-(propan-2-yl)-15-oxa-8λ^6-thia-1,9,11,18,22-pentaazatetracyclo[14.4.1.13,7.110,14]tricosa-3(23),4,6,10(22),11,13-hexaene-2,8,8-trione]	–	–	++ (++ is 30-60%)	1 to 3
Cc1cccc(C)c1-c1cc2nc(n1)NS(=O)(=O)c1cccc(c1)C(=O)N1CCN(Cc3cccc(O)c3)C[C@@H]1CO2 [Compound 272]	3 to 30	+++ (+++ is >60%)	–	–
Cc1cccc(C)c1-c1cc2nc(n1)NS(=O)(=O)c1cccc(c1)C(=O)N1CCN(C3CCC(F)(F)CC3)CC(C1)O2 (centres unmarked) [Compound 46]	–	–	+++ (+++ is >600%)	< 1
Cc1cccc(C)c1-c1cc2nc(n1)NS(=O)(=O)c1cccc(c1)C(=O)N1CCNCC1C(C)O2 (centres unmarked) [Compound 172, 13-(2,6-dimethylphenyl)-9-methyl-10-oxa-17λ^6-thia-3,6,14,16,23-pentaazatetracyclo[16.3.1.111,15.03,8]tricosa-1(22),11,13,15(23),18,20-hexaene-2,17,17-trione]	–	+ (+ is <300%)	–	–
CCC(CC)CN1CCN2C(=O)c3cccc(c3)S(=O)(=O)Nc3nc(cc(-c4c(C)cccc4C)n3)OC[C@H]2C1 [Compound 259]	< 1	+++ (+++ is >60%)	–	–
Cc1cccc(C)c1-c1cc2nc(n1)NS(=O)(=O)c1cccc(c1)C(=O)N1C[C@H](CC(C)C)NC[C@H](C1)O2 [Compound 108, (16R,19S)-12-(2,6-Dimethylphenyl)-19-(2-methylpropyl)-15-oxa-8λ^6-thia-1,9,11,18,22-pentaazatetracyclo[14.4.1.13,7.110,14]tricosa-3(23),4,6,10(22),11,13-hexaene-2,8,8-trione]	–	–	+++ (+++ is >600%)	< 1
Cc1cccc(C)c1-c1cc2nc(n1)NS(=O)(=O)c1cccc(c1)C(=O)N1CC(CC3(CCCC3)C1)O2 (centres unmarked) [Compound 229, 18′-(2,6-Dimethylphenyl)-2′-oxa-14′λ^6-thia-7′,15′,17′,20′-tetraazaspiro[cyclopentane-1,5′-tetracyclo[14.3.1.13,7.19,13]docosane]-1′(20′),9′,11′,13′(21′),16′,18′-hexaene-8′,14′,14′-trione]	< 1	++ (++ is 30-60%)	–	–
Cc1cccc(C)c1-c1cc2nc(n1)NS(=O)(=O)c1cccc(c1)C(=O)N1CCN(C3CC4(CCCC4)C3)C[C@@H](O2)[C@H]1CC(C)C [Compound 83, (16R,21R)-12-(2,6-Dimethylphenyl)-21-(2-methylpropyl)-18-{spiro[3.4]octan-2-yl}-15-oxa-8λ^6-thia-1,9,11,18,22-pentaazatetracyclo[14.4.1.13,7.110,14]tricosa-3(23),4,6,10(22),11,13-hexaene-2,8,8-trione]	–	–	+++ (+++ is >600%)	< 1
Cc1cccc(C)c1-c1cc2nc(n1)NS(=O)(=O)c1cccc(c1)C(=O)N1CCN(Cc3ccccc3)CC(C)(C1)O2 (centres unmarked) [Compound 82, 18-Benzyl-12-(2,6-dimethylphenyl)-16-methyl-15-oxa-8λ^6-thia-1,9,11,18,22-pentaazatetracyclo[14.4.1.13,7.110,14]tricosa-3(23),4,6,10,12,14(22)-hexaene-2,8,8-trione]	–	–	+++ (+++ is >600%)	1 to 3
Cc1cccc(C)c1-c1cc2nc(n1)NS(=O)(=O)c1cccc(c1)C(=O)N1CC3CCCN(C)C3[C@@H](C1)O2 (single isomer, unassigned) [Compound 200, 12-(2,6-dimethylphenyl)-18-methyl-15-oxa-8λ^6-thia-1,9,11,18,25-pentaazapentacyclo[14.7.1.13,7.110,14.017,22]hexacosa-3,5,7(26),10(25),11,13-hexaene-2,8,8-trione]	–	+ (+ is <300%)	–	–
Cc1cccc(C)c1-c1cc2nc(n1)NS(=O)(=O)c1cccc(c1)C(=O)N1CCN(C3CCC(F)CC3)C[C@H](C1)O2 (stereo partly drawn) [Compound 40, (16R)-12-(2,6-Dimethylphenyl)-18-(4-fluorocyclohexyl)-15-oxa-8λ^6-thia-1,9,11,18,22-pentaazatetracyclo[14.4.1.13,7.110,14]tricosa-3(23),4,6,10,12,14(22)-hexaene-2,8,8-trione]	–	–	+++ (+++ is >600%)	< 1
Cc1cccc(C)c1-c1cc2nc(n1)NS(=O)(=O)c1cnn(c1)CCC(=O)N1Cc3ccccc3C(C1)O2 (centres unmarked) [Compound 346]	–	+ (+ is <300%)	–	–
